Reference: ChEMBL document CHEMBL3407452, “Linear and branched alkyl-esters and amides of gallic acid and other (mono-, di- and tri-) hydroxy benzoyl derivatives as promising anti-HCV inhibitors” (Eur J Med Chem, 2015)
Calls of active or inactive are those of the source. No cut-off for these calls is given here.

Legend:
[1] = system: Human immunodeficiency virus 1; test: Antiviral activity against HIV1 3B infected in human CEM cells assessed as reduction in virus-induced cytopathicity after 4 to 5 days by microscopy based syncytium cell formation assay; assay type: functional, organism-based, CCRF-CEM; conditions: Human immunodeficiency virus 1, 3B, CCRF-CEM; read-out: EC50
[2] = system: Human immunodeficiency virus 2; test: Antiviral activity against HIV2 ROD infected in human CEM cells assessed as reduction in virus-induced cytopathicity after 4 to 5 days by microscopy based syncytium cell formation assay; assay type: functional, organism-based, ISOLATE ROD, CCRF-CEM; conditions: Human immunodeficiency virus 2, ISOLATE ROD, CCRF-CEM; read-out: EC50
[3] = Cytotoxicity against human CEM cells assessed as inhibition of cell proliferation; assay type: cell-based; conditions: CEM cells (CCRF-CEM)
Hepatitis C virus [4] = test: Antiviral activity against HCV genotype 1b I389luc-ubi-neo/NS3-3'/5.1 replicons infected in human Huh5-2 HCV subgenomic replicon-containing cells assessed as reduction in virus replication after 3 days by luciferase reporter gene assay; assay type: functional, Hepacivirus hominis; conditions: Hepatitis C virus, genotype 1b, Huh-5-2, 72 h; for EC50: read-out: EC50
[5] = Cytotoxicity against human Huh5-2 cells after 72 hrs by MTS assay; assay type: cell-based, Huh-5-2
[6] = Selectivity index, ratio of CC50 for human Huh5-2 cells to EC50 for HCV genotype 1b; design: species or system Huh-5-2
Hepatitis C virus [7] = test: Antiviral activity against HCV genotype 1b I389luc-ubi-neo/NS3-3'/5.1 replicons infected in human Huh-9-13 HCV subgenomic replicon-containing cells assessed as reduction in virus replication after 3 days by RT-qPCR method; assay type: functional, Hepacivirus hominis; conditions: 72 h
Hepatitis C virus [8] = test: Antiviral activity against HCV genotype 1b I389luc-ubi-neo/NS3-3'/5.1 replicons infected in human HuH6 HCV subgenomic replicon-containing cells assessed as reduction in virus replication after 3 days by RT-qPCR method; assay type: functional, Hepacivirus hominis; conditions: HuH-6, 72 h
[9] = Cytotoxicity against human Huh-9-13 cells after 72 hrs by MTS assay; assay type: cell-based
[10] = Cytotoxicity against human HuH6 cells after 72 hrs by MTS assay; assay type: cell-based
[11] = Cytotoxicity against human Huh-9-13 cells assessed as reduction in cell number at 33 uM to 100 uM after 3 days by nile red staining based confocal microscopy; conditions: 72 h
[12] = Cytotoxicity against human Huh-9-13 cells assessed as alteration in cell morphology at 33 uM to 100 uM after 3 days by nile red staining based confocal microscopy; conditions: 72 h
[13] = Induction of phospholipidosis in human Huh-9-13 cells assessed as increase in charged lipid content at 33 uM to 100 uM after 3 days by nile red staining based confocal microscopy; assay type: cell-based; conditions: 72 h
[14] = Cytotoxicity against human Huh-9-13 cells assessed as reduction in cell number at 1 uM to 11 uM after 3 days by nile red staining based confocal microscopy; conditions: 72 h
[15] = Cytotoxicity against human Huh-9-13 cells assessed as alteration in cell morphology at 1 uM to 11 uM after 3 days by nile red staining based confocal microscopy; conditions: 72 h
[16] = Induction of phospholipidosis in human Huh-9-13 cells assessed as increase in charged lipid content at 1 uM to 11 uM after 3 days by nile red staining based confocal microscopy; assay type: cell-based; conditions: 72 h
Vaccinia virus = test: Antiviral activity against vaccinia virus; assay type: functional, organism-based; conditions: Orthopoxvirus vaccinia
[17] = system: Vesicular stomatitis virus; test: Antiviral activity against vesicular stomatitis virus; assay type: functional, organism-based
Coxsackievirus B4 = test: Antiviral activity against human coxsackievirus B4; assay type: functional, organism-based
[18] = system: Respiratory syncytial virus; test: Antiviral activity against RSV; assay type: functional, organism-based
Human respirovirus 3 = test: Antiviral activity against human parainfluenza virus 3; assay type: functional, organism-based
Reovirus sp. = test: Antiviral activity against reovirus; assay type: functional, organism-based
Sindbis virus = test: Antiviral activity against sindbis virus; assay type: functional, organism-based
Influenza A virus H3N2 = test: Antiviral activity against influenza A virus H3N2; assay type: functional, organism-based
Influenza A virus = test: Antiviral activity against influenza A virus (H1N1); assay type: functional, organism-based
Punta Toro virus = test: Antiviral activity against punta toro virus; assay type: functional, organism-based
Feline coronavirus = test: Antiviral activity against feline coronavirus; assay type: functional, organism-based
Felid alphaherpesvirus 1 = test: Antiviral activity against feline herpesvirus; assay type: functional, organism-based
Chikungunya virus = test: Antiviral activity against chikungunya virus; assay type: functional
[19] = Selectivity index, ratio of CC50 for human CEM cells to EC50 for HIV1 3B; assay type: toxicity, cell-based, CCRF-CEM; conditions: read-out: Ratio CC50/EC50

Structure (SMILES) | EC50 [1] | EC50 [2] | CC50 [3] | EC90 (Hepatitis C virus [4]) | EC50 (Hepatitis C virus [4]) | CC50 at 72 h [5] | Ratio CC50/EC50 [6] | Activity (Vaccinia virus) | Activity [17] | Activity (Coxsackievirus B4) | Activity [18] | Activity (Human respirovirus 3) | Activity (Reovirus sp.) | Activity (Sindbis virus) | Activity (Influenza A virus H3N2) | Activity (Influenza A virus) | Activity (Punta Toro virus) | Activity (Feline coronavirus) | Activity (Felid alphaherpesvirus 1) | Activity (Chikungunya virus) | further results
O=C(NCCCCCCCCCCCCNC(=O)c1ccc(O)c(O)c1O)c1ccc(O)c(O)c1O | > 10 µM | > 10 µM | 55 µM | 6.1 µM | 2.5 µM | > 100 µM | >40 | inactive | inactive | inactive | inactive | inactive | inactive | inactive | inactive | inactive | inactive | inactive | inactive | inactive | EC50 (Hepatitis C virus [7]): 8.4 µM; EC50 (Hepatitis C virus [8]): 33 µM; CC50 at 72 h [9]: > 100 µM; CC50 at 72 h [10]: > 100 µM; Activity [11]: Toxic; Activity [12]: Toxic; Activity [13]: Toxic; Activity [14]: Non-toxic; Activity [15]: Non-toxic; Activity [16]: Non-toxic
O=C(NCCCCN(CCCNC(=O)c1ccc(O)c(O)c1O)C(=O)c1ccc(O)c(O)c1O)c1ccc(O)c(O)c1O | 2.6 µM | > 10 µM | 27 µM | > 50 µM | 34 µM | > 50 µM | – | inactive | inactive | inactive | inactive | inactive | inactive | inactive | inactive | inactive | inactive | inactive | inactive | inactive | selectivity ratio [19]: 10
CCCCCCCCCCCCOC(=O)c1cc(O)c(O)c(O)c1 [DODECYL GALLATE] | ≥ 1 µM | ≥ 1 µM | 2.8 µM | 1.8 µM | 0.4 µM | 8.9 µM | >22 | inactive | inactive | inactive | inactive | inactive | inactive | inactive | inactive | inactive | inactive | inactive | inactive | inactive | –
O=C(OCCCCCCCCCCCCOC(=O)c1cc(O)c(O)c(O)c1)c1cc(O)c(O)c(O)c1 | 4.6 µM | > 10 µM | 4.7 µM | 37 µM | 6.5 µM | > 50 µM | >7 | inactive | inactive | inactive | inactive | inactive | inactive | inactive | inactive | inactive | inactive | inactive | inactive | inactive | –
O=C(NCCN(CCN(CCN(CCNC(=O)c1cc(O)c(O)c(O)c1)C(=O)c1cc(O)c(O)c(O)c1)C(=O)c1cc(O)c(O)c(O)c1)C(=O)c1cc(O)c(O)c(O)c1)c1cc(O)c(O)c(O)c1 | 4.9 µM | > 10 µM | 21 µM | > 50 µM | 34 µM | > 50 µM | – | inactive | inactive | inactive | inactive | inactive | inactive | inactive | inactive | inactive | inactive | inactive | inactive | inactive | selectivity ratio [19]: 4
